The experiment deals with C57BL/6J mice fed control chow diet (CHD) or high fat diet (HFD). Put plainly: Chronic subcutaneous infusion in mice fed control chow or high fat diet: body growth, glucose homeostasis (IPGTT), insulin secretion, organ weight, liver triglycerides. It is filed as in vivo, mouse. The protocol:
Six weeks-old C57BL/6J male mice (Janvier Labs, Courtaboeuf, France) were received and acclimated in specific pathogen free (SPF) maintenance condition. Mice had free access to a standard chow diet (R04-40, Safe, Augy, France) and were kept on 12 h light/dark cycle. After one week, a group of 12 mice was fed control carbohydrate diet (CHD) (D 12450Ki, Research diets, NJ) and a group of 12 mice was fed high fat (60% fat and sucrose) diet (HFD) (D12492i, Research diets, NJ).
After three weeks of metabolite treatment (i.e. four weeks of HFD feeding) an intra-peritoneal glucose tolerance test (IPGTT) (2 g/kg) was performed in conscious mice following an overnight fast. Blood was collected from the tail vein before glucose injection and 15, 30, 60 and 120 minutes afterwards. Additional blood samples were collected during the IPGTT in GK rats 15, 90, 180 and 240 minutes after glucose injection. Blood glucose levels were determined using an Accu-Check® Performa (Roche Diagnostics, Meylan, France). Additional blood samples were collected at base line and 30 minutes after glucose injection in Microvette® CB 300 Lithium Heparin (Sarstedt, Marnay, France). Plasma was separated by centrifugation and stored at −80° C. until insulin radioimmunoassay. Evaluation of overall glucose tolerance was obtained from cumulative glycemia (GCum) and the ΔG, which were determined by the total increment of plasma glucose values during the IPGTT (GCum) and the cumulative glycemia during the test above baseline (ΔG). After six weeks of metabolite treatment, mice were killed by decapitation and organ were dissected and weighed. Half of liver, fat and pancreas samples were snap frozen in liquid nitrogen and stored at −80° C. for molecular studies, and the second half processed for histopathology. All procedures were authorized following review by the institutional ethic committee and carried out under national license condition (Ref 00486.02).
Blood glucose was measured using an Accu-Check® Performa (Roche Diagnostics, Meylan, France) and plasma insulin was determined using Insulin ELISA kits (Mercodia, Uppsala, Sweden). For determination of liver triglycerides, liver samples (100 mg) were homogenized and incubated in NonidetP-40 (5%) and supernatants containing triglycerides were collected. Triglycerides concentration was quantified in the supernatant fraction using a colorimetric assay (ab65336, Abcam, Paris, France) by measuring OD at 570 nm. The ratio NAD/NADH was determined using a quantification kit (MAK037; SigmaAldrich, St Quentin, France) on extracts prepared from 20 mg pancreas tissue. Samples were homogenized in the extraction buffer and clarified by centrifugation. Supernatant was deproteinized by filtration through a 10-kDa cutoff spin filter (Millipore SAS, Molsheim, France). The assay was then performed according to the manufacturer's instructions.
As expected, mice fed HFD rapidly gained more weight than mice fed control diet and developed fasting hyperglycemia and marked glucose intolerance (FIG. 1A-1F).

Structures are written as SMILES.

On to `Cc1ccc(O)c(O)c1` [4-MC, 4-methylcatechol], for which the “adiposity index (retroperitoneal fat pads to body weight)” value (both diet groups (CHD, HFD), 6 weeks, vs saline) is on record as “significant reduction”. For the same molecule, under “both diet groups, vs saline”, the liver triglycerides content entry was “significant reduction”. Under “both diets, IPGTT, vs saline”, the cumulative glycemia entry is “reduced”, the glucose tolerance entry is on record as “improved glucose tolerance” and the ΔG result is listed as “reduced”. Further, for the setting “both diets, vs saline”, the fasting glycemia entry is “reduced” and the insulin secretion result is listed as “increased insulin secretion”. Also, under “mice fed HFD or control diet”, the liver weight entry is recorded as “significant reduction” and the pancreas weight result is “increased pancreas weight”. In addition, the body growth result (mice fed chow diet or HFD, chronic treatment, vs saline) is “strong reduction”. Moreover, under “mice fed chow diet or HFD, vs saline”, the BMI result is given as “strong reduction”.
